IC50 data for 16 compounds are collected here from ChEMBL document CHEMBL1137514, “Synthesis and biological evaluation of non-peptide alpha(v)beta(3)/alpha(5)beta(1) integrin dual antagonists containing 5,6-dihydropyridin-2-one scaffolds” (Bioorg Med Chem, 2007).

Each structure is given as a SMILES string. Residues, ends and D or L forms follow the SMILES beside them. Where only a bound is given, the exact number is not on record here.

Test [1] concerns the target Integrin alpha-V/beta-3 (Homo sapiens, UniProt P05106+P06756). Kind of test: Inhibition of integrin alpha-V-beta-3-mediated SK-MEL-24 cell adhesion to fibronectin.
For test [2], the target named is Integrin alpha-5/beta-1 (Homo sapiens, UniProt P05556+P08648). Description: Inhibition of integrin alpha-5-beta-1-mediated K562 cell adhesion to fibronectin. The test is classed as cell-based.
Sequence of Integrin alpha-5/beta-1 (P05556 21-798 limits assumed): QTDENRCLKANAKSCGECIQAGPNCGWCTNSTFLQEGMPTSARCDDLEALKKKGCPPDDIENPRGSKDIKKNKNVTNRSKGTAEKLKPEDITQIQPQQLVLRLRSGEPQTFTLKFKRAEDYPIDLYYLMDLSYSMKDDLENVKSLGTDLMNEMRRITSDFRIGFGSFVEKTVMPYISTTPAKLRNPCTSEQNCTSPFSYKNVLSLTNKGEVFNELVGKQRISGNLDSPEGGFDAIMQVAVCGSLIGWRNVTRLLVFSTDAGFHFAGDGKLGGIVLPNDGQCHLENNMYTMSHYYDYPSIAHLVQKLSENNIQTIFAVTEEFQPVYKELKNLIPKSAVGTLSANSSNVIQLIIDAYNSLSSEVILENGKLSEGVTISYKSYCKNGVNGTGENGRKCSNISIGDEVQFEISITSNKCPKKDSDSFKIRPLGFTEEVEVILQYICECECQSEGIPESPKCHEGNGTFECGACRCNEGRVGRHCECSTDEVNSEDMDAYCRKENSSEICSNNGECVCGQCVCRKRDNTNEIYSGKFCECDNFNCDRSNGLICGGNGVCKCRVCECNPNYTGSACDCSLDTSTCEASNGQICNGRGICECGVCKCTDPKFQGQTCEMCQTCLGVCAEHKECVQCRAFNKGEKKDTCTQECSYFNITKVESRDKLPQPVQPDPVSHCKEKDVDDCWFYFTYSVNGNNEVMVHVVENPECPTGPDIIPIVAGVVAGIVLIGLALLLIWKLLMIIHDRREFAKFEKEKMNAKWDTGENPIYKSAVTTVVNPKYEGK
Sequence of Integrin alpha-5/beta-1 (P08648 42-894 limits assumed): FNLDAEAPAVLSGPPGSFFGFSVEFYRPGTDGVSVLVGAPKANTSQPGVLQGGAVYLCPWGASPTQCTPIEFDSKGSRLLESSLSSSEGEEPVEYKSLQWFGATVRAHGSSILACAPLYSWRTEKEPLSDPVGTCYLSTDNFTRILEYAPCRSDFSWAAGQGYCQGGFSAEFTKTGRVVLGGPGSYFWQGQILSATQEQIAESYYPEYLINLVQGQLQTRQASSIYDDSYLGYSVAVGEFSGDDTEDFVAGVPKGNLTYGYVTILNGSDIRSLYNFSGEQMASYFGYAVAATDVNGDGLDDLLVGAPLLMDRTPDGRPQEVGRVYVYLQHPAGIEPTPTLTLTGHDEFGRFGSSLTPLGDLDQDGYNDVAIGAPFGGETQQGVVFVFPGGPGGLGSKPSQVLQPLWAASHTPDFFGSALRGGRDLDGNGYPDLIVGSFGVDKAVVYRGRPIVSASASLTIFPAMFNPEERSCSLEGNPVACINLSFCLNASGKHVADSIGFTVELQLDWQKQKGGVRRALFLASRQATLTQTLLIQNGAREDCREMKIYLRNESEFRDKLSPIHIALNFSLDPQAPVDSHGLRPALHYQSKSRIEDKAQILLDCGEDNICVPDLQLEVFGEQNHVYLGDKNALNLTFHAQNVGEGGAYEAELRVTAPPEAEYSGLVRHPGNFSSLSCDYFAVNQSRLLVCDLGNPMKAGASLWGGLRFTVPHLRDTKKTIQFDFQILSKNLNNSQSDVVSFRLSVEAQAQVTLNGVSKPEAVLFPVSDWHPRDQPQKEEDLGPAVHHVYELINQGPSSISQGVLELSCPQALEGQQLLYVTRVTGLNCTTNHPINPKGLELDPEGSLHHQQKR
Sequence of Integrin alpha-5/beta-1 (P08648 895-1049 limits assumed): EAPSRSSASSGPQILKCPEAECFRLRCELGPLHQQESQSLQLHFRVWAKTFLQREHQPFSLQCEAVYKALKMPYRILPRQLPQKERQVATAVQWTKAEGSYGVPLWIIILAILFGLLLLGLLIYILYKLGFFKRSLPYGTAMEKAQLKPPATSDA

Sequence of Integrin alpha-V/beta-3 (P05106 27-788 limits assumed): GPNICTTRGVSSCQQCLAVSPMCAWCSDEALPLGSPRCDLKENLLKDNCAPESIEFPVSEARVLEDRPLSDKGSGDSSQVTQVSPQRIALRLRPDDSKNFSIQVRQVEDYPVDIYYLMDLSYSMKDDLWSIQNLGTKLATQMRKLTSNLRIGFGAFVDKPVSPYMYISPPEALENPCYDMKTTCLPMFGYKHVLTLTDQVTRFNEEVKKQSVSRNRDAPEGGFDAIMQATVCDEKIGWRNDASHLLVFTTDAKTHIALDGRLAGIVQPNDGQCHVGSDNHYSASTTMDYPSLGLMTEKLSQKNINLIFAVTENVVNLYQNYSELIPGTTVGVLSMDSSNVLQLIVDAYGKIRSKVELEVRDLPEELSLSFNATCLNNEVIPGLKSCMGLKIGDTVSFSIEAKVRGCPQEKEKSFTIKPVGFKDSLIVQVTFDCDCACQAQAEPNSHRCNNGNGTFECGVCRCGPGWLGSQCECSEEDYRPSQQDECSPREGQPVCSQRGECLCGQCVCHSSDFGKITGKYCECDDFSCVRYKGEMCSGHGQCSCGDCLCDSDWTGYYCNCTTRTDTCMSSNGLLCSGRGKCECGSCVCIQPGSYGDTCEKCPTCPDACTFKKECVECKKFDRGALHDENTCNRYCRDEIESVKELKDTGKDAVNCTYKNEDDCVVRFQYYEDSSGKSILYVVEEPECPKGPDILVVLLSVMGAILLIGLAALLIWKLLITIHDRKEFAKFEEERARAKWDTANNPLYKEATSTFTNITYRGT
Sequence of Integrin alpha-V/beta-3 (P06756 31-889 limits assumed): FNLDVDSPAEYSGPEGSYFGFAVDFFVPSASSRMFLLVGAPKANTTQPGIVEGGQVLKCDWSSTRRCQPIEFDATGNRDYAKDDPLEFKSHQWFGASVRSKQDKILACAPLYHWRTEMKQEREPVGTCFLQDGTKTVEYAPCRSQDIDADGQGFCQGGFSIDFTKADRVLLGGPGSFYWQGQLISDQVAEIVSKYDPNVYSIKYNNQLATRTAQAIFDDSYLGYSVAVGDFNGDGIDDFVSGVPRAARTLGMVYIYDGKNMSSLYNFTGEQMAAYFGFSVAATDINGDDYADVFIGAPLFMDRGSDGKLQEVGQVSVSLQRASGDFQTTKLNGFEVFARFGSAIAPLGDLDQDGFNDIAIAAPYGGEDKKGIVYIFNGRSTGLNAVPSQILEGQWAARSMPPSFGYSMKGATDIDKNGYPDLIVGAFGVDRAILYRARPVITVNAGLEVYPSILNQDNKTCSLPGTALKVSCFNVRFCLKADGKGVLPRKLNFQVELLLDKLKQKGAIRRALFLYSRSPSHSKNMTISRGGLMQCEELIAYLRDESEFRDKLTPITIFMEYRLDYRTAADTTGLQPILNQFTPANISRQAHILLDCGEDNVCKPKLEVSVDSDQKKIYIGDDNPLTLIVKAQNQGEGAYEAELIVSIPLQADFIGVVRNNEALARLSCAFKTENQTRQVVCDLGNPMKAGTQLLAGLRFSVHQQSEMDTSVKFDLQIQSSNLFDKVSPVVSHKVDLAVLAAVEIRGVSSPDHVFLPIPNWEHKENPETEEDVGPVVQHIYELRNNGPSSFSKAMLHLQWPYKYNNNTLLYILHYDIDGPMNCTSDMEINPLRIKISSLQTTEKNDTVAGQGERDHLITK
Sequence of Integrin alpha-V/beta-3 (P06756 891-1048 limits assumed): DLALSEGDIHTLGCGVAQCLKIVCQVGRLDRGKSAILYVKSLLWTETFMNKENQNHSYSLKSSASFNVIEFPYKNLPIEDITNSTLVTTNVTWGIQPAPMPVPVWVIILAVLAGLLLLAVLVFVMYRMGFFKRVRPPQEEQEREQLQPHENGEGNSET

Usually IC50 stands for the concentration that gives 50% inhibition. A low value points to inhibition by little substance. On to `CCCN(C(=O)C(CC(=O)O)C(=O)O)C1=C(C)CC(c2ccccc2)N(Cc2ccc(C(=N)N)cc2)C1=O` (configuration not stated), for which the IC50 in test [1] and in test [2] was > 1000 µM in each case.

On to `CCCN(C(=O)CC(=O)O)C1=C(C)CC(c2ccccc2)N(Cc2ccc(N)cc2)C1=O` (configuration not stated), for which the IC50 in test [1] came out at 0.6 µM; in test [2] it was 0.17 µM.

Regarding `CCCN(C(=O)C(CC(=O)OC)C(=O)O)C1=C(C)CC(c2ccccc2)N(Cc2ccc(N)cc2)C1=O` (configuration not stated), the IC50 is 45 µM in test [1] and > 1000 µM in test [2].

For the compound `CCCN(C(=O)C(CC(=O)O)C(=O)O)C1=C(C)CC(c2ccccc2)N(Cc2ccc(N)cc2)C1=O` (configuration not stated), the IC50 in test [1] and in test [2] was > 1000 µM each time.

Consider `CCCN(C(=O)CC(=O)O)C1=C(C)CC(c2ccccc2)N(CCCCN)C1=O` (configuration not stated), for which the figures for the 50% inhibitory concentration (IC50) in test [1] and in test [2] were 0.038 µM and 0.043 µM, respectively.

As to `CCCN(C(=O)CCN)C1=C(C)CC(c2ccccc2)N(CCC(=O)O)C1=O` (configuration not stated), the half-inhibitory concentration (IC50) in test [1] and in test [2] was > 1000 µM throughout.

For `CCCN(C(=O)CCCCCN)C1=C(C)CC(c2ccccc2)N(CCC(=O)O)C1=O` (configuration not stated), the concentration for half-maximal inhibition (IC50) in test [1] and in test [2] was > 1000 µM each time.

With `CCCN(C(=O)CC(=O)O)C1=C(C)CC(c2ccc(C(=N)N)cc2)N([C@@H](C)c2ccc(OC)cc2)C1=O` (some centres not stated), the IC50 in test [1] and in test [2] was > 1000 µM throughout.

On to `CCCN(C(=O)CC(=O)O)C1=C(C)CC(c2ccccc2)N(Cc2ccc(C(=N)N)cc2)C1=O` (configuration not stated), for which the half-maximal inhibitory concentration (IC50) is 120 µM in test [1] and > 1000 µM in test [2].

For the compound `CCCN(C(=O)CC(=O)O)C1=C(C)C[C@@H](c2ccc(N)cc2)N([C@@H](C)c2ccc(OC)cc2)C1=O`, the results for the half-maximal inhibitory concentration (IC50) in test [1] and in test [2] were 0.24 µM and > 1000 µM, respectively.

For the compound `CCCN(C(=O)CCC(=O)O)C1=C(C)CC(c2ccccc2)N(Cc2ccc(C(=N)N)cc2)C1=O` (configuration not stated), the IC50 in test [1] and in test [2] was > 1000 µM each time.

In the case of `CCCN(C(=O)C(CC(=O)OC)C(=O)O)C1=C(C)CC(c2ccccc2)N(Cc2ccc(C(=N)N)cc2)C1=O` (configuration not stated), the IC50 in test [1] and in test [2] was > 1000 µM each time.

`CCCN(C(=O)CC(=O)O)C1=C(C)C[C@H](c2ccccc2)N([C@@H](C)c2ccc(N)cc2)C1=O`: the IC50 in test [1] turned out to be 15.1 µM; in test [2], 35.1 µM.

Consider `CCCN(C(=O)CC(=O)O)C1=C(C)C[C@@H](c2ccccc2)N([C@@H](C)c2ccc(N)cc2)C1=O`, for which the IC50 in test [1] stood at 0.071 µM; in test [2], 0.057 µM.

As for `CCCN(C(=O)CC(=O)O)C1=C(C)C[C@H](c2ccc(N)cc2)N([C@@H](C)c2ccc(OC)cc2)C1=O`, the half-maximal inhibitory concentration (IC50) in test [1] is 21 µM; in test [2], 0.018 µM.

Regarding `CC(=O)N[C@@H](CC(=O)O)C(=O)N[C@@H](CCCNC(=N)N)C(=O)N[C@@H](CC(C)C)C(=O)N[C@@H](CC(=O)O)C(=O)N[C@@H](CO)C(=O)O` (Ac-DRLDS-OH), the IC50 was found to be 0.025 µM in test [1] and 259 µM in test [2].
